The target in one assay is T1, HIF-1α (Homo sapiens, UniProt Q16665).
T1 construct: endogenous in cells; host or cells: ARPE-19 (ATCC CRL-2302)
The experiment in a line: Analysis of HIF-1α protein expression (Western blot) in ARPE-19 cells under mixed hypoxic condition. The following applies: mixed hypoxic condition (1% oxygen + CoCl2) for 1 hour, concentration range at which HIF-1α expression is reduced by 50% vs untreated control, read-out: IC50 HIF-1α Hypoxia (1 hour). Format: cell-based. As to the method: (§1) ARPE-19 cells (Human retinal pigment epithelial cells, ATCC CRL-2302) were cultured in DMEM/F12 (LM002-08, Welgene) medium containing 10% fetal bovine serum (FBS, 16000-044, Gibco) in an incubator at 37°C with 5% carbon dioxide. When the cells grew sufficiently, they were cultured in experimental culture dishes for protein isolation and medium supernatant acquisition.
(§2) Cells were detached from the culture dish using TrypLE™ Express (Gibco). After centrifugation at 1000 rpm for 3 minutes, the supernatant was removed. The cells were counted and seeded into new culture dishes. Normoxic conditions were maintained by culturing the cells in a 37°C incubator with 5% carbon dioxide, and hypoxic conditions were maintained by culturing the cells in a hypoxic incubator with 1% oxygen, 5% carbon dioxide, and 94% nitrogen gas.
In a disease of macular degeneration, hypoxia is a very important condition, and since the expression of downstream genes is regulated by HIF-1α, a transcription factor that is stabilized in hypoxic conditions, the following experiment was conducted to confirm this.
Mixed hypoxic condition was used for HIF-1α stability experiments, in which hypoxia was induced with 1% oxygen and the stability of HIF-1α was enhanced by treatment with cobalt chloride (CoCl2).
The compounds of each Example were diluted to 0.1 nM, 1 nM, 3 nM, 10 nM, 30 nM, 100 nM, 300 nM, 1 µM, and 10 µM in DMEM/F12 medium without fetal bovine serum, pretreated for 16 hours or 2 hours, and cultured for 1 hour or 24 hours in a mixed hypoxic condition. The cell medium was discarded, and protein lysates were obtained by rapidly treating with protein lysis buffer (RIPA Lysis and Extraction buffer, Thermo Fisher Scientific). LDS (4X Bolt ™ LDS Sample buffer) and reducing agent (10X Bolt ™ Sample Reducing Agent) were added together to the protein lysate, and heated at 70°C for 10 minutes. The lysate was separated by electrophoresis on a 4-12% Bis-Tris gel, transferred to a PVDF membrane, and blocked with 3% BSA (Albumin, Bovine, Fraction V, MPbio). The membrane was incubated overnight at 4°C with a mixture of anti-HIF-1α (ab179483, abcam) and anti-b-actin (MA515739, Invitrogen) antibodies at a ratio of 1:4000. The following day, the membrane was treated with a peroxidase-conjugated secondary antibody for 1 hour at room temperature, and the target protein was expressed using an ECL solution (Clarity ™ Western ECL substrate, Bio-rad) and quantified.
Based on the results of the expression level of HIF-1α in cells treated with compounds diluted from 10 µM to 0.1 nM, the concentration range of the compound at which the expression level of HIF-1α was reduced by 50% or less compared to the untreated control group was derived.
(In general: Immunoblotting shows a protein as a band on a membrane.)

The next assay has as its system VEGF. In words: Evaluation of VEGF protein secretion level (Human VEGF ELISA) in ARPE-19 cell medium under hypoxic conditions. Type of assay: cell-based. On the procedure: as §1, §2
The expression of the downstream gene, angiogenesis inducer VEGF, is regulated by HIF-1α, a major transcription factor under hypoxic conditions, and the level of secreted VEGF protein can be quantitatively confirmed through ELISA (Enzyme Linked Immunosorbent Assay, Human VEGF Quantikine ELISA Kit, R&D systems). For this purpose, the following experiment was conducted.
The compounds of each Example were diluted to 0.1 nM, 1 nM, 3 nM, 10 nM, 30 nM, 100 nM, 300 nM, 1 µM and 10 µM in DMEM/F12 medium containing 1% fetal bovine serum, pretreated for 2 hours, and cultured for 24 hours under hypoxic conditions to obtain the cell medium supernatant. The supernatant was centrifuged at 1000 rpm for 3 minutes, and a specific amount was treated with a VEGF ELISA assay kit and the absorbance value was measured at 450 nm to quantitatively confirm the level of VEGF protein (see Table 1 below).
Based on the results of secreted VEGF protein expression levels in cell media treated with compounds diluted at concentrations ranging from 10 µM to 0.1 nM, the concentration range of the compound at which the secreted VEGF protein level was reduced by 50% or less compared to the untreated control group was derived.
In general terms: An ELISA detects its analyte on a solid surface through an enzyme-linked reagent.

Setting [1] is: ARPE-19 cells, pretreated 2 hours, 24 hours hypoxic conditions, secreted VEGF in medium supernatant by ELISA, concentration range reducing VEGF by 50% vs untreated control, read-out: IC50 VEGF.

The values below come from patent EP4567035A1, “NOVEL COMPOUND AS HYPOXIA-INDUCIBLE FACTOR 1(HIF-1) INHIBITOR OR VASCULAR ENDOTHELIAL GROWTH FACTOR (VEGF) INHIBITOR, AND PHARMACEUTICAL COMPOSITION COMPRISING SAME” (Nextgen Bioscience Co., Ltd., priority 2022, dated 2024).

Read-outs that look alike come from different tables or passages of the source. Bounds are passed on as bounds.

T1 sequence (Q16665 whole entry): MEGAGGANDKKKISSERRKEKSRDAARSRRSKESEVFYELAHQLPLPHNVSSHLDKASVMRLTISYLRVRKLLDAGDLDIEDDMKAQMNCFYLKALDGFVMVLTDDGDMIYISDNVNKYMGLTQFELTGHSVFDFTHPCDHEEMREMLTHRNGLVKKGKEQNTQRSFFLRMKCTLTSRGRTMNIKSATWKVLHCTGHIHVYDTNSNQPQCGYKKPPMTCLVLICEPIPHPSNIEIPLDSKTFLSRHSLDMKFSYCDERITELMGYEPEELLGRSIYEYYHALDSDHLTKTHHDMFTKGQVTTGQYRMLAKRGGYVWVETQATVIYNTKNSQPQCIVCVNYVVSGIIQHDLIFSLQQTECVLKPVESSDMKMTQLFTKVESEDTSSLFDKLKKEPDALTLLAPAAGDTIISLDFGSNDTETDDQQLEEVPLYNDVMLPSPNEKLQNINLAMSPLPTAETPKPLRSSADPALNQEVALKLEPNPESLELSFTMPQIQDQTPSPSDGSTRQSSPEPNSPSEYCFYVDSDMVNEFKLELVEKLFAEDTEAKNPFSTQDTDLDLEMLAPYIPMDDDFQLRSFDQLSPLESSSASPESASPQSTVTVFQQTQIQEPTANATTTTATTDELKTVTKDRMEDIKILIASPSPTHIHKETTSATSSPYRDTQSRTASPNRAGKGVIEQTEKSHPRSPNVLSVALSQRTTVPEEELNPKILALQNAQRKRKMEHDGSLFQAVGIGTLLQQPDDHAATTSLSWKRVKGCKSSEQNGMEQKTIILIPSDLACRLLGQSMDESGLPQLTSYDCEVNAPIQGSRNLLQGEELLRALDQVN

Turning to `O=C(NCc1cccc(F)c1)c1ncnc2nc(C3CCCC3)[nH]c12` [Example 13, 8-Cyclopentyl-N-(3-fluorobenzyl)-7H-purine-6-carboxamide], the DC50 at HIF-1α was less than 0.1 µM. For the same compound, in the assay with VEGF (setting [1]), the IC50 lay within 0.1 to 1 µM.
On to `O=C(NCc1cc(F)cc(Nc2ccccc2)c1)c1ncnc2nc(C3CCCC3)[nH]c12` [Example 15, 8-Cyclopentyl-N-(3-fluoro-5-(phenylamino)benzyl)-7H-purine-6-carboxamide], for which the DC50 at HIF-1α is less than 0.1 µM. Also, the IC50 in the assay on VEGF (setting [1]) lay in the range of 0.1 to 1 µM.
Consider `O=C(NCc1cc(F)cc(Nc2ccncc2)c1)c1ncnc2nc(C3CCCC3)[nH]c12` [Example 16, 8-Cyclopentyl-N-(3-fluoro-5-(pyridin-4-ylamino)benzyl)-7H-purine-6-carboxamide], for which, on HIF-1α, the DC50 is less than 0.1 µM. Moreover, in the assay with VEGF (setting [1]), the IC50 lay within 0.1 to 1 µM.
For the compound `O=C(NCc1cc(F)cc(Nc2cccc(C(F)(F)F)c2)c1)c1ncnc2nc(C3CCCC3)[nH]c12` [Example 17, 8-Cyclopentyl-N-(3-fluoro-5-((3-(trifluoromethyl)phenyl)amino)benzyl)-7H-purine-6-carboxamide], the DC50 at HIF-1α is less than 0.1 µM. For the same compound, the IC50 in the assay with VEGF (setting [1]) lay in the range of 0.1 to 1 µM.
For the compound `CN(C)c1ccc(Nc2cc(F)cc(CNC(=O)c3ncnc4nc(C5CCCC5)[nH]c34)c2)cc1` [Example 18, 8-Cyclopentyl-N-(3-((4-(dimethylamino)phenyl)amino)-5-fluorobenzyl)-7H-purine-6-carboxamide], the DC50 on HIF-1α is less than 0.1 µM. In addition, in the assay with VEGF (setting [1]), the IC50 fell in the range of 0.1 to 1 µM.
`CS(=O)(=O)c1ccc(Nc2cc(F)cc(CNC(=O)c3ncnc4nc(C5CCCC5)[nH]c34)c2)cc1` [Example 19, 8-Cyclopentyl-N-(3-fluoro-5-((4-(methylsulfonyl)phenyl)amino)benzyl)-7H-purine-6-carboxamide]: the DC50 at HIF-1α is less than 0.1 µM. Moreover, the IC50 in the assay on VEGF (setting [1]) was in the range of 0.1 to 1 µM.
With `O=C(NCc1cc(F)cc(Nc2ccc(Cl)cc2F)c1)c1ncnc2nc(C3CCCC3)[nH]c12` [Example 20, N-(3-((4-chloro-2-fluorophenyl)amino)-5-fluorobenzyl)-8-cyclopentyl-7H-purine-6-carboxamide], the DC50 at HIF-1α is less than 0.1 µM. Moreover, the IC50 with VEGF (setting [1]) lay in the range of 0.1 to 1 µM.
As to `O=C(NCc1cc(F)cc(Nc2ccc(F)cc2)c1)c1ncnc2nc(C3CCCC3)[nH]c12` [Example 21, 8-Cyclopentyl-N-(3-fluoro-5-((4-fluorophenyl)amino)benzyl)-7H-purine-6-carboxamide], at HIF-1α, the DC50 is less than 0.1 µM. In addition, the IC50 in the assay on VEGF (setting [1]) is 0.1 to 1 µM.
`N#Cc1cccc(-n2cc(-c3cc(F)cc(CNC(=O)c4ncnc5nc(C6CCCC6)[nH]c45)c3)cn2)c1` [Example 23, N-(3-(1-(3-Cyanophenyl)-1H-pyrazol-4-yl)-5-fluorobenzyl)-8-cyclopentyl-7H-purine-6-carboxamide]: the DC50 at HIF-1α was less than 0.1 µM. For the same compound, the IC50 in the assay on VEGF (setting [1]) was 0.1 to 1 µM.
As to `CS(=O)(=O)c1ccc(Cn2cc(-c3cc(F)cc(CNC(=O)c4ncnc5nc(C6CCCC6)[nH]c45)c3)cn2)cc1` [Example 24, 8-Cyclopentyl-N-(3-fluoro-5-(1-(4-(methylsulfonyl)benzyl)-1H-pyrazol-4-yl)benzyl)-7H-purine-6-carboxamide], the DC50 at HIF-1α was less than 0.1 µM. In addition, the IC50 in the assay with VEGF (setting [1]) is 0.1 to 1 µM.
On the same counts, the results for `COc1ccc(-n2cc(-c3cc(F)cc(CNC(=O)c4ncnc5nc(C6CCCC6)[nH]c45)c3)cn2)cc1` [Example 25, 8-Cyclopentyl-N-(3-fluoro-5-(1-(4-methoxyphenyl)-1H-pyrazol-4-yl)benzyl)-7H-purine-6-carboxamide] are less than 0.1 µM and 0.1 to 1 µM.
On the same counts, the results for `O=C(NCc1cc(F)cc(-c2cnn(-c3ccc(C(F)(F)F)cc3)c2)c1)c1ncnc2nc(C3CCCC3)[nH]c12` [Example 26, 8-Cyclopentyl-N-(3-fluoro-5-(1-(4-(trifluoromethyl)phenyl)-1H-pyrazol-4-yl)benzyl)-7H-purine-6-carboxamide] are less than 0.1 µM and 0.1 to 1 µM.
With `O=C(NCc1cc(F)cc(-c2cnn(-c3ccc(F)cc3)c2)c1)c1ncnc2nc(C3CCCC3)[nH]c12` [Example 27, 8-Cyclopentyl-N-(3-fluoro-5-(1-(4-fluorophenyl)-1H-pyrazol-4-yl)benzyl)-7H-purine-6-carboxamide], the DC50 at HIF-1α is less than 0.1 µM. In the assay on VEGF (setting [1]), the IC50 is 0.1 to 1 µM.
As for `CS(=O)(=O)c1ccc(-n2cc(-c3cc(F)cc(CNC(=O)c4ncnc5nc(C6CCCC6)[nH]c45)c3)cn2)cc1` [Example 28, 8-Cyclopentyl-N-(3-fluoro-5-(1-(4-(methylsulfonyl)phenyl)-1H-pyrazol-4-yl)benzyl)-7H-purine-6-carboxamide], at HIF-1α, the DC50 was less than 0.1 µM. Besides, in the assay on VEGF (setting [1]), the IC50 lay within 0.1 to 1 µM.
The like results for `O=C(NCc1cc(F)cc(-c2cnn(Cc3cccc(C(F)(F)F)c3)c2)c1)c1ncnc2nc(C3CCCC3)[nH]c12` [Example 29, 8-Cyclopentyl-N-(3-fluoro-5-(1-(3-(trifluoromethyl)benzyl)-1H-pyrazol-4-yl)benzyl)-7H-purine-6-carboxamide] were, in that order, less than 0.1 µM and 0.1 to 1 µM.
For the compound `O=C(NCc1cc(F)cc(-c2cnn(-c3ccccn3)c2)c1)c1ncnc2nc(C3CCCC3)[nH]c12` [Example 30, 8-Cyclopentyl-N-(3-fluoro-5-(1-(pyridin-2-yl)-1H-pyrazol-4-yl)benzyl)-7H-purine-6-carboxamide], the DC50 at HIF-1α is less than 0.1 µM. Also, the IC50 in the assay on VEGF (setting [1]) is 0.1 to 1 µM.
For the compound `O=C(NCc1cc(F)cc(-c2cnn(-c3cccnc3)c2)c1)c1ncnc2nc(C3CCCC3)[nH]c12` [Example 31, 8-Cyclopentyl-N-(3-fluoro-5-(1-(pyridin-3-yl)-1H-pyrazol-4-yl)benzyl)-7H-purine-6-carboxamide], the DC50 at HIF-1α is less than 0.1 µM. Besides, the IC50 was less than 0.1 µM with VEGF (ARPE-19 cells, pretreated 2 hours, 24 hours hypoxic conditions, ELISA, read-out: concentration at which the secreted VEGF protein level was suppressed to less than 50%); less than 0.1 µM in the assay with VEGF (setting [1]); less than 0.1 µM with VEGF (Experimental Example 2 (HIF-1α Western blot), read-out: concentration at which the expression level of VEGF was suppressed to less than 50%).
Turning to `O=C(NCc1cc(F)cc(-c2cnn(-c3cncnc3)c2)c1)c1ncnc2nc(C3CCCC3)[nH]c12` [Example 32, 8-Cyclopentyl-N-(3-fluoro-5-(1-(pyrimidin-5-yl)-1H-pyrazol-4-yl)benzyl)-7H-purine-6-carboxamide], at HIF-1α, the DC50 was less than 0.1 µM. The IC50 in the assay with VEGF (setting [1]) was in the range of 0.1 to 1 µM.
The like results for `COc1ccccc1Nc1cc(F)cc(CNC(=O)c2ncnc3nc(C4CCCC4)[nH]c23)c1` [Example 33, 8-Cyclopentyl-N-(3-fluoro-5-((2-methoxyphenyl)amino)benzyl)-7H-purine-6-carboxamide] were, in that order, less than 0.1 µM and 0.1 to 1 µM.
In the case of `COc1cccc(Nc2cc(F)cc(CNC(=O)c3ncnc4nc(C5CCCC5)[nH]c34)c2)c1` [Example 34, 8-Cyclopentyl-N-(3-fluoro-5-((3-methoxyphenyl)amino)benzyl)-7H-purine-6-carboxamide], the DC50 on HIF-1α was less than 0.1 µM. Besides, in the assay on VEGF (setting [1]), the IC50 was in the range of 0.1 to 1 µM.
In the case of `COc1ccc(Nc2cc(F)cc(CNC(=O)c3ncnc4nc(C5CCCC5)[nH]c34)c2)cc1` [Example 35, 8-Cyclopentyl-N-(3-fluoro-5-((4-methoxyphenyl)amino)benzyl)-7H-purine-6-carboxamide], at HIF-1α, the DC50 was less than 0.1 µM. Moreover, the IC50 in the assay with VEGF (setting [1]) was in the range of 0.1 to 1 µM.
